Results published in US20260209260A1, “VECTORIZED NHC IRIDIUM(III) COMPLEXES AND USE THEREOF IN PHOTODYNAMIC THERAPY AND/OR DIAGNOSTIC” (CENTRE NATIONAL DE LA RECHERCHE SCIENTIFIQUE, priority 2022, published 2026).
Read-outs that look alike come from different tables or passages of the source.

Assays:
Format in all cases: cell-based, Human
[1] = system: 22rV1 prostate cancer cells (PSMA-positive); experiment: Cell viability assay (MTT), dark and blue light; conditions: for Photosensitizing index (PI): 22Rv1, dark vs blue light; for SI (vs MC3T3) 22Rv1 Blue / SI (vs NIH-3T3) 22Rv1 Blue: blue light 458 nm
Summary of the method: (§1)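 Readout after 72 h: MTT reduction at 570 nm. Light condition: 8 h dark loading, 10 min irradiation at 458 nm (LEDs, 9.6 W), dark to 72 h; control condition kept dark for the full 72 h.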

[2] = system: C4-2B prostate cancer cells (PSMA-positive); experiment: Cell viability assay (MTT), dark and blue light; conditions: for Photosensitizing index (PI): dark vs blue light; for SI (vs MC3T3) C4-2b Blue / SI (vs NIH-3T3) C4-2b Blue: blue light 458 nm
Summary of the method: as §1

[3] = system: PSMA-negative cells (PC-3 and DU145); experiment: Cell viability assay (MTT), summary over PSMA-negative cancer cells; conditions: blue light 458 nm; read-out: GI50 mean over PSMA-negative cancer cells, irradiated
Procedure: (§2) Cells were grown in humidified incubators at 37° C. in 5% CO2. Murine MC3T3 osteoblast and NIH-3T3 fibroblast cells-used as non-tumor cell models-were cultured in a-MEM medium and DMEM medium supplemented with 10% fetal bovine serum (FBS) and 1% Penicillin/Streptomycin (P/S) antibiotics, respectively. Human T24 bladder, MGHU3 bladder, Scaber bladder, A549 lung, MCF7 breast, MiaPaCa2 pancreas cancer cells were cultured in DMEM medium supplemented with 10% FBS and 1% P/S antibiotics. Human ASPC-1 pancreas, PC-3 prostate, DU-145 prostate, C4-2B prostate and 22rV1 prostate cancer cells were cultured in RPMI medium supplemented with 10% FBS and 1% P/S antibiotics. Human Hela cervix and HepG2 liver cancer cells were cultured EMEM medium supplemented with 10% FBS and 1% P/S antibiotics.
(§3) MTT reagent (3-(4,5-dimethylthiazol-2-yl)-2,5-diphenyltetrazolium bromide) was used to determine cell death as originally described by Mosmann. […] The concentration of the complexes was calculated based on the elemental composition of the complexes determined by the elemental analyses. […] After solubilization with 500 μL of DMSO, formazan was quantified spectrophotometrically with a microplate reader at 570 nm absorbance (ClarioSTAR, BMG LabTech). […] All the results were calculated from data obtained in at least three independent experiments performed in triplicate. […]

[4] = system: PSMA-positive cells (C4-2b and 22Rv1); experiment: Cell viability assay (MTT), summary over PSMA-positive cancer cells; conditions: blue light 458 nm; read-out: GI50 mean over PSMA-positive cancer cells, irradiated
Procedure: as §2, §3

[5] = system: MGHU3 bladder cancer cells; experiment: Cell viability assay (MTT), dark and blue light; conditions: for Photosensitizing index (PI) MGHU3: dark vs blue light 458 nm; for SI (vs MC3T3) MGHU3 Blue / SI (vs NIH-3T3) MGHU3 Blue: blue light 458 nm
Summary of the method: (§4)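 Absorbance of MTT formazan at 570 nm gives viability after 72 h exposure to the complexes in 0.1% (v/v) DMSO. Irradiated wells got 10 min of 458 nm light after 8 h of dark incubation.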

Hela cervix cancer cells = experiment: Cell viability assay (MTT), dark and blue light; conditions: for SI (vs MC3T3) HeLa Blue: blue light 458 nm; for Photosensitizing index (PI) HeLa: dark vs blue light 458 nm
Summary of the method: as §4

[6] = 22Rv1, blue light, read-out: GI50
[7] = 8 h in the dark, blue light 458 nm 10 min, then dark up to 72 h, read-out: GI50 22Rv1 Blue
[8] = in the dark, 72 h, read-out: GI50 22Rv1 Dark
[9] = C4-2b, blue light, read-out: GI50
[10] = in the dark, 72 h, read-out: GI50 C4-2b Dark
[11] = 8 h in the dark, blue light 458 nm 10 min, then dark up to 72 h, read-out: GI50 C4-2b Blue
[12] = 8 h in the dark, blue light 458 nm 10 min, then dark up to 72 h, read-out: GI50 MGHU3 Blue
[13] = in the dark, 72 h, read-out: GI50 MGHU3 Dark
[14] = 8 h in the dark, blue light 458 nm 10 min, then dark up to 72 h, read-out: GI50 HeLa Blue
[15] = in the dark, 72 h, read-out: GI50 HeLa Dark

| Compound | GI50 [1, 6] | Photosensitizing index (PI) [1] | GI50 ([1]; 22Rv1, dark, read-out: GI50) | GI50 [1, 7] | SI (vs MC3T3) 22Rv1 Blue [1] | SI (vs NIH-3T3) 22Rv1 Blue [1] | SI (vs MC3T3) 22Rv1 Dark [1] | GI50 [1, 8] | GI50 [2, 9] | Photosensitizing index (PI) ([2]; C4-2b) | GI50 ([2]; C4-2b, dark, read-out: GI50) | SI (vs MC3T3) C4-2b Blue [2] | SI (vs NIH-3T3) C4-2b Blue [2] | SI (vs MC3T3) C4-2b Dark ([2]; dark) | GI50 [5, 12] | Photosensitizing index (PI) MGHU3 [5] | GI50 [5, 13] | GI50 (Hela cervix cancer cells; [14]) | Photosensitizing index (PI) HeLa (Hela cervix cancer cells) | GI50 (Hela cervix cancer cells; [15]) | other results |
| --- | --- | --- | --- | --- | --- | --- | --- | --- | --- | --- | --- | --- | --- | --- | --- | --- | --- | --- | --- | --- | --- |
| F[P-](F)(F)(F)(F)F.O=C(O)CC[C@H](NC(=O)N[C@@H](CCCCNC(=O)CCn1cc[n+]2[c]1[Ir-3]13([c]4ccccc4-c4sc5ccccc5[n+]41)([c]1ccccc1-c1sc4ccccc4[n+]13)[n+]1ccccc1-2)C(=O)O)C(=O)O [III-k] | 0.39 µM | 13.1 | 5.1 µM | 8.39 µM | 87.1 | 77.3 | 18.8 | 5.1 µM | 0.41 µM | 12.9 | 5.3 µM | 83.3 | 73.9 | 17.9 | – | – | – | – | – | – | GI50 [2, 10]: 5.3 µM; GI50 [3]: 1.6 µM; GI50 [4]: 0.31 µM |
| F[P-](F)(F)(F)(F)F.O=C(O)CC[C@H](NC(=O)N[C@@H](CCCCNC(=O)CCn1cc[n+]2[c]1[Ir-3]13([c]4c(sc5ccccc45)-c4cccc[n+]41)([c]1c(sc4ccccc14)-c1cccc[n+]13)[n+]1ccccc1-2)C(=O)O)C(=O)O [III-j] | 0.28 µM | 35.4 | 9.9 µM | 0.28 µM | 44.0 | 38.0 | – | 9.9 µM | 0.52 µM | 21.7 | 11.3 µM | 24.0 | 20.7 | >22.1 | – | – | – | – | – | – | SI (vs NIH-3T3) 22Rv1 Dark [1]: >10.1; GI50 [2, 11]: 0.52 µM; SI (vs NIH-3T3) C4-2b Dark ([2]; dark): >8.8; GI50 [2, 10]: 11.3 µM |
| F[P-](F)(F)(F)(F)F.O=C(O)CC[C@H](NC(=O)N[C@@H](CCCCNC(=O)CCn1cc[n+]2[c]1[Ir-3]13([c]4cccc5ccc6ccc[n+]1c6c45)([c]1cccc4ccc5ccc[n+]3c5c14)[n+]1ccccc1-2)C(=O)O)C(=O)O [III-i] | 1.96 µM | 6.4 | 12.5 µM | 2 µM | 20.7 | – | 20.0 | 12.5 µM | 2.69 µM | 5.5 | 14.8 µM | – | 20.7 | – | – | – | – | – | – | – | SI (vs NIH-3T3) 22Rv1 Dark [1]: >8; GI50 [2, 11]: 2.7 µM; SI (vs NIH-3T3) C4-2b Dark ([2]; dark): >6.7; GI50 [2, 10]: 14.8 µM |
| F[P-](F)(F)(F)(F)F.O=C(CCCC[C@@H]1SC[C@@H]2NC(=O)N[C@@H]21)NCCCn1cc[n+]2[c]1[Ir-3]13([c]4ccccc4-c4c5ccccc5cc[n+]41)([c]1ccccc1-c1c4ccccc4cc[n+]13)[n+]1ccccc1-2 [I-h] | – | – | – | – | – | – | – | – | – | – | – | – | – | – | 1.6 µM | 16.7 | 26.7 µM | 2.86 µM | 14.6 | 41.8 µM | SI (vs MC3T3) MGHU3 Dark ([5]; dark): 1.8; SI (vs MC3T3) HeLa Blue (Hela cervix cancer cells): 1.7; SI (vs MC3T3) HeLa Dark (Hela cervix cancer cells): 1.0; SI (vs NIH-3T3) HeLa Dark (Hela cervix cancer cells): 2.4 |
| F[P-](F)(F)(F)(F)F.O=C(CCCC[C@@H]1SC[C@@H]2NC(=O)N[C@@H]21)NCCCn1cc[n+]2[c]1[Ir-3]13([c]4ccccc4-c4sc5ccccc5[n+]41)([c]1ccccc1-c1sc4ccccc4[n+]13)[n+]1ccccc1-2 [I-k] | – | – | – | – | – | – | – | – | – | – | – | – | – | – | 2.9 µM | 15.9 | 46.1 µM | 6.5 µM | 7.8 | 50.6 µM | SI (vs MC3T3) MGHU3 Blue [5]: 6.8; SI (vs NIH-3T3) MGHU3 Blue [5]: 10.7; SI (vs NIH-3T3) HeLa Dark (Hela cervix cancer cells): 1.5 |
| F[P-](F)(F)(F)(F)F.O=C(O)CC[C@H](NC(=O)N[C@@H](CCCCNC(=O)CCn1cc[n+]2[c]1[Ir-3]13([c]4ccccc4-c4c5ccccc5cc[n+]41)([c]1ccccc1-c1c4ccccc4cc[n+]13)[n+]1ccccc1-2)C(=O)O)C(=O)O [III-h] | 0.14 µM | 29.3 | 4.1 µM | 0.14 µM | – | 131.9 | 12.9 | 4.1 µM | 0.31 µM | 12.9 | 4 µM | 27.0 | 61.9 | 13.0 | – | – | – | – | – | – | SI (vs NIH-3T3) 22Rv1 Dark [1]: >25; GI50 [2, 11]: 0.31 µM; GI50 [3]: 1.6 µM; GI50 [4]: 0.31 µM |
| F[P-](F)(F)(F)(F)F.O=C(CCCC[C@@H]1SC[C@@H]2NC(=O)N[C@@H]21)NCCCn1cc[n+]2[c]1[Ir-3]13([c]4ccccc4-c4ccc5ccccc5[n+]41)([c]1ccccc1-c1ccc4ccccc4[n+]13)[n+]1ccccc1-2 [I-g] | – | – | – | – | – | – | – | – | – | – | – | – | – | – | 4.3 µM | 5.9 | 25.4 µM | 10.8 µM | 4.1 | 44.3 µM | SI (vs NIH-3T3) MGHU3 Blue [5]: 14.3; SI (vs MC3T3) MGHU3 Dark ([5]; dark): 2.2; SI (vs MC3T3) HeLa Dark (Hela cervix cancer cells): 1.2 |
| COC(=O)c1ccc2[n+](c1)[Ir-3]13([c]4ccccc4-2)([c]2ccccc2-c2ccc(C(=O)OC)c[n+]21)[c]1n(CCCNC(=O)CCCC[C@@H]2SC[C@@H]4NC(=O)N[C@@H]42)cc[n+]1-c1cccc[n+]13.F[P-](F)(F)(F)(F)F [I-e] | – | – | – | – | – | – | – | – | – | – | – | – | – | – | 17.8 µM | >5.6 | > 100 µM | 59 µM | 3.7 | 221 µM | SI (vs MC3T3) MGHU3 Blue [5]: 2.3; SI (vs NIH-3T3) MGHU3 Blue [5]: 7.8; SI (vs MC3T3) MGHU3 Dark ([5]; dark): <1; SI (vs NIH-3T3) MGHU3 Dark ([5]; dark): >2.5; SI (vs MC3T3) HeLa Blue (Hela cervix cancer cells): 0.7; SI (vs MC3T3) HeLa Dark (Hela cervix cancer cells): 0.3; SI (vs NIH-3T3) HeLa Dark (Hela cervix cancer cells): >1.1 |
